One assay has as its system IR HepG2 cells. Description: Glucose consumption assay in IR HepG2 cells. Format: cell-based, Human. Particulars: for EC50: Homo sapiens, insulin-resistant HepG2 cells, 24 h incubation with compound, read-out: EC50, effects on glucose consumption in IR HepG2 cells; for Antidiabetic activity (glucose consumption) compared with metformin, in words: IR HepG2 cells, comparison with metformin. Here is the method: The compounds were dissolved in DMSO as stock. The final solution was 1:1,000 dilution of the stock in DMEM.
Human HepG2 cells were cultured in 96-well cluster plates, after achieving confluence, 10^−[…] insulin was treated for 36 h in serum-free and phenol red-free high-glucose DMEM. After this incubation, the cells were washed four times with high-glucose DMEM ([…]) and twice with phosphate-buffered saline. The cells were added to serum-free and phenol red-free high-glucose DMEM containing the various test compounds at different concentrations, incubated for 24 h, and then glucose content in the culture medium was measured using a glucose assay kit.
The enhancement ratio of glucose consumption (GC) was calculated as follows: GC %=(GC treatment group−GC of control group)/GC of control group×100.
The potencies of the products were expressed as median effective concentration (EC50) values.
All data were presented as the means±SD. SPSS10.0 was used for statistical analysis. Statistical significance was at a level of 5% (p<0.05).

A further assay relates to GLUT4. Briefly: GLUT4myc translocation (cell surface GLUT4myc density, ELISA) in L6-GLUT4myc skeletal muscle cells. It is filed as cell-based, rat. Particulars: for Stimulation of GLUT4myc translocation, in words: L6-GLUT4myc muscle cells, 24 h incubation; for Effect on GLUT4 translocation compared with insulin: L6-GLUT4myc cells, insulin 100 nM positive control. From the text: GLUT4 is the main glucose transporter in skeletal muscle. In the basal state, the majority of GLUT4 locate in vesicles of cytoplasma. In response to insulin, GLUT4 translocates to the cell membrane, therefore transport more glucose into cell. The rate of glucose transport is the rate-limiting step of glucose metabolism in skeletal muscle. […] In order to measure GLUT4 translocation, we use stable over expressing GLUT4myc rat muscle cell line, L6-GLUT4myc. The amount of GLUT4 on intact cell membrane was measured by ELISA with anti-myc antibody and HRP-conjugated secondary antibody. The OD value was detected at 492 nm.
The tested compounds were dissolved in DMSO as stock. The final solution was 1:1,000 dilution of the stock in low glucose DMEM.
The cells were treated with each compound at 2 to 5 different concentrations with triplicate in each group. The control group was treated with 0.1% DMSO. The blank group had no treatment. Insulin was used as positive control.
Myoblasts were cultured and differentiated into myotubes. Cells were serum starved for 4 hours, then incubated with different compounds at different concentrations for 24 hours or with 100 nM insulin for 20 min. Then cells were washed 3 times with ice-cold phosphate-butfered saline (PBS) supplemented with 1 mM Ca2+ and 1 mM Mg2+(PBS+), fixed with 3% (v/v) paraformaldehyde (PFA) in PBS+ for 10 min at 4° C., then 20 min at room temperature. The cells were washed twice with PBS+, quenched 10 min with 100 mM glycine in PBS+, blocked 10 min with ice-cold 5% (v/v) milk in PBS+, and reacted with polyclonal anti-myc antibody (1:250) for 1 hour. After washing 6 times with PBS+, cells reacted with HRP-bound goat anti-rabbit secondary antibody (1:5000) for 1 hour. The cells were washed 6 times with PBS+, and incubated with 1.0 ml OPD reagent and allowed to develop for 10-20 min. The reaction was stopped with 0.25 ml per well of 3 M HCl. Supernatants were collected and absorbance was measured at 492 nm. Background absorbance obtained in the absence of anti-myc antibody was subtracted from all values.
All data were presented as the means±SD. SPSS16.0 was used for statistical analysis. Data sets of more than two groups were compared using analysis of variance (One-Way ANOVA). Statistical significance was at a level of 5% (p<0.05).
Background: ELISA stands for enzyme-linked immunosorbent assay.

Another assay relates to AMPK. Description: Phosphorylation of AMPK by western blotting in HepG2 cells. The note with it: 2 h incubation, western blot. Format: cell-based, Human. As to the method:
(§1) In this section, Western Blotting was used to assay the effect of these flavonoids on the phosphorylation of AMPK and ACC in HepG2 cells to illustrate the relationship between the mechanism of the flavonoids on glucose uptake and lipid metabolism and APMK signal pathway.
(§2) Whole cell lysate preparation: After serum-starving HepG2 cells, the cells were incubated with the flavonoids for 2 h, and then washed twice with PBS. Next, pre-chilled RIPA lysis buffer was added for 20 min at 4° C. The lysates were centrifuged at 13,000 rpm/min for 10 min at 4° C., and the supernatants were used for determination of total protein content. Forty micrograms of protein from the supernatant was aliquoted and its volume was adjusted to thirty microliters using deionized water and loading buffer. Lastly, the protein samples were heated at 65° C. for 15 min.
(§3) Western blot analysis: The samples were electrophoresed on 7.5% SDS-polyacrylamide gels, transferred to polyvinylidene fluoride membranes, blocked for 1 h in 5% (w/v) bovine serum albumin, and then incubated with primary antibodies overnight at 4° C. The membranes were washed three times with TBST and incubated with appropriate secondary antibodies conjugated to horse-radish peroxidase for 1 h at room temperature. The immunoreactive bands were detected using chemiluminescent reagent and autoradiographic film.

The next assay concerns ACC. Description: Phosphorylation of ACC by western blotting in HepG2 cells. It is filed as cell-based, Human. The note with it: 2 h incubation, western blot. As to the method: as §1, §2, §3

“Also recorded” adds a separate entry of the source.

These results are taken from patent US8946457B2, “Flavone derivatives and their preparative method and medical use” (Tianjin Medical University, priority 2010, dated 2015).

In general, EC50 refers to the midpoint of the concentration-response curve. Turning to `O=C(/C=C/c1ccc(O)cc1)COc1c(-c2ccc(O)cc2)oc2cc(O)cc(O)c2c1=O` [Compound I-1, 3-O-[(E)-4-(4-Hydroxyphenyl)-2-oxobut-3-en-1-yl] kaempferol], in the assay with IR HepG2 cells, the concentration for a half-maximal effect (EC50) stood at 368 nM and the “Antidiabetic activity (glucose consumption) compared with metformin, in words” value is reported as “comparable activity with that of metformin”.

For `O=C(/C=C/c1ccc(OCc2ccccc2)cc1)COc1c(-c2ccc(O)cc2)oc2cc(O)cc(O)c2c1=O` [Compound I-2, 3-O-[(E)-4-(4-(Benzyloxyphenyl))-2-oxobut-3-en-1-yl] kaempferol], in the assay on GLUT4, the “Stimulation of GLUT4myc translocation, in words” value (“Stimulation” below) is listed as “significantly stimulate GLUT4myc translocation”. Also, the concentration giving a half-maximal response (EC50) in the assay on IR HepG2 cells turned out to be 658 nM.

With `COc1ccc(/C=C/C(=O)COc2c(-c3ccc(O)cc3)oc3cc(O)cc(O)c3c2=O)cc1` [Compound I-3, 3-O-[(E)-4-(4-Methoxyphenyl)-2-oxobut-3-en-1-yl] kaempferol], the “Stimulation” value with GLUT4 is listed as “significantly stimulate GLUT4myc translocation”. Also, in the assay on IR HepG2 cells, the EC50 came to 149 nM and the “Antidiabetic activity (glucose consumption) compared with metformin, in words” value is reported as “comparable activity with that of metformin; also recorded: significantly superior to that of metformin”.

On to `CCOc1ccc(/C=C/C(=O)COc2c(-c3ccc(O)cc3)oc3cc(O)cc(O)c3c2=O)cc1` [Compound I-4, 3-O-[(E)-4-(4-Ethoxyphenyl)-2-oxobut-3-en-1-yl] kaempferol], for which, in the assay with IR HepG2 cells, the EC50 was 42 nM and the “Antidiabetic activity (glucose consumption) compared with metformin, in words” value is recorded as “comparable activity with that of metformin; also recorded: significantly superior to that of metformin”.

With `O=C(/C=C/c1ccccc1)COc1c(-c2ccc(O)cc2)oc2cc(O)cc(O)c2c1=O` [Compound I-5, 3-O-[(E)-(2-Oxo-4-phenylbut-3-en-1-yl)] kaempferol], the EC50 with IR HepG2 cells is 473 nM.

For `Cc1ccc(/C=C/C(=O)COc2c(-c3ccc(O)cc3)oc3cc(O)cc(O)c3c2=O)cc1` [Compound I-6, 3-O-[(E)-(2-Oxo-4-(p-tolyl)but-3-en-1-yl)] kaempferol], in the assay on IR HepG2 cells, the EC50 stood at 10 nM and the “Antidiabetic activity (glucose consumption) compared with metformin, in words” value is “comparable activity with that of metformin; also recorded: significantly superior to that of metformin”.

Take `COc1ccc(/C=C/C(=O)COc2c(-c3ccc(O)cc3)oc3cc(O)cc(O)c3c2=O)cc1O` [Compound I-7, 3-O-[(E)-4-(3-Hydroxy-4-methoxyphenyl)-2-oxobut-3-en-1-yl]kaempferol]: the 50% effective concentration (EC50) in the assay on IR HepG2 cells came to 5070 nM.

With `COc1cc(/C=C/C(=O)COc2c(-c3ccc(O)cc3)oc3cc(O)cc(O)c3c2=O)ccc1O` [Compound I-8, 3-O-[(E)-4-(3-Methoxy-4-hydroxyphenyl-)-2-oxobut-3-en-1-yl]kaempferol], in the assay with IR HepG2 cells, the concentration giving a half-maximal response (EC50) came to 6190 nM.

Consider `CC(C)(C)c1ccc(/C=C/C(=O)COc2c(-c3ccc(O)cc3)oc3cc(O)cc(O)c3c2=O)cc1` [Compound I-9, 3-O-[(E)-4-(4-(tert-Butyl)phenyl)-2-oxobut-3-en-1-yl] kaempferol], for which, in the assay on IR HepG2 cells, the EC50 turned out to be 13 nM and the “Antidiabetic activity (glucose consumption) compared with metformin, in words” value was “comparable activity with that of metformin; also recorded: significantly superior to that of metformin”.

Take `CC(C)c1ccc(/C=C/C(=O)COc2c(-c3ccc(O)cc3)oc3cc(O)cc(O)c3c2=O)cc1` [Compound I-10, 3-O-[(E)-4-(4-Isopropylphenyl)-2-oxobut-3-en-1-yl] kaempferol]: the “Stimulation” value in the assay on GLUT4 is given as “significantly stimulate GLUT4myc translocation”. Also, in the assay with IR HepG2 cells, the EC50 worked out at 15 nM and the “Antidiabetic activity (glucose consumption) compared with metformin, in words” value was “comparable activity with that of metformin; also recorded: significantly superior to that of metformin”.

Consider `O=C(/C=C/c1ccc(O)c(Cl)c1)COc1c(-c2ccc(O)cc2)oc2cc(O)cc(O)c2c1=O` [Compound I-11, 3-O-[(E)-4-(3-Chloro-4-hydroxyphenyl)-2-oxobut-3-en-1-yl] kaempferol], for which the EC50 with IR HepG2 cells is 3560 nM.

With `N#Cc1ccc(/C=C/C(=O)COc2c(-c3ccc(O)cc3)oc3cc(O)cc(O)c3c2=O)cc1` [Compound I-12, 3-O-[(E)-4-(4-Cyanophenyl)-2-oxobut-3-en-1-yl] kaempferol], the “Phosphorylation of AMPK” value with AMPK was “significantly stimulate the phosphorylation”. Further, the “Effect on GLUT4 translocation compared with insulin” value with GLUT4 (2 μg/ml) is “higher effect on GLUT4 translocation than insulin; also recorded: strongest effect on promoting glucose transporter 4 translocation than insulin”. In the assay on GLUT4 (5 μg/ml), the “Effect on GLUT4 translocation compared with insulin” value was “higher effect on GLUT4 translocation than insulin; also recorded: strongest effect on promoting glucose transporter 4 translocation than insulin”. In addition, in the assay on GLUT4, the “Stimulation” value was “strongest effect; also recorded: significantly stimulate GLUT4myc translocation”. Moreover, in the assay on IR HepG2 cells, the concentration for a half-maximal effect (EC50) came to 3 nM and the “Antidiabetic activity (glucose consumption) compared with metformin, in words” value is reported as “comparable activity with that of metformin; also recorded: significantly superior to that of metformin; also recorded: strongest antidiabetic activity; also recorded: greater than that of marketed drug metformin”. Further, in the assay on ACC, the “Phosphorylation of ACC” value was “significantly stimulate the phosphorylation”.

For `O=C(/C=C/c1ccc(Br)cc1)COc1c(-c2ccc(O)cc2)oc2cc(O)cc(O)c2c1=O` [Compound I-13, 3-O-[(E)-4-(4-Bromophenyl)-2-oxobut-3-en-1-yl] kaempferol], in the assay on IR HepG2 cells, the concentration for a half-maximal effect (EC50) was found to be 393 nM.

With `O=C(/C=C/c1ccc(F)cc1)COc1c(-c2ccc(O)cc2)oc2cc(O)cc(O)c2c1=O` [Compound I-14, 3-O-[(E)-4-(4-Fluorophenyl)-2-oxobut-3-en-1-yl] kaempferol], in the assay on GLUT4, the “Stimulation” value was “significantly stimulate GLUT4myc translocation”. For the same molecule, the EC50 with IR HepG2 cells came out at 669 nM.

As to `O=C(/C=C/c1ccc(Cl)cc1)COc1c(-c2ccc(O)cc2)oc2cc(O)cc(O)c2c1=O` [Compound I-15, 3-O-[(E)-4-(4-Chlorophenyl)-2-oxobut-3-en-1-yl] kaempferol], the EC50 in the assay with IR HepG2 cells stood at 1080 nM.

For `O=C(/C=C/c1ccc(Cl)c(Cl)c1)COc1c(-c2ccc(O)cc2)oc2cc(O)cc(O)c2c1=O` [Compound I-16, 3-O-[(E)-4-(3,4-Dichlorophenyl)-2-oxobut-3-en-1-yl] kaempferol], in the assay with IR HepG2 cells, the EC50 was 2590 nM.

In the case of `CN(C)C(=N)N=C(N)N` [metformin, reference compound], the EC50 in the assay with IR HepG2 cells was determined as 270 nM.
